Experimental data reported in patent US9447086B2, “6-amino acid heteroaryldihydropyrimidines for the treatment and prophylaxis of hepatitis B virus infection” (priority 2012, dated 2016).
In brackets after ≈: the same amount, converted by molar mass. Where two headings read alike, the source gives them in different places.

Tests used:
[1] = Cytotoxicity (CC50) in HepDE19 cells, CCK-8 cell viability; format: cell-based; settings: human, HepDE19 cells; read-out: CC50
Text: (§1) HepG2.2.15 and HepDE19 are stably-transfected cell lines containing the HBV genome. Both cell lines are derived from the hepatoblastoma cell line Hep G2 (American Type Culture Collection, ATCC® HB-8065™) by the published procedures described in references: MA Selles et al. Proc. Natl. Acad. Sci. USA 1987, 84, 1005-1009 and H Guo et al. Journal of Virology 2007, 81, 12472-12484, respectively. Both cell lines were maintained in Dulbecco's modified Eagle's medium (DMEM)-F12 medium supplemented with 10% fetal bovine serum, 100 U/mL penicillin, 100 μg/mL streptomycin, and 0.5 mg/mL of G418.
Five days after treatment, cell viability was measured by addition of 20 μL of CCK-8 reagent. Two hours after incubation at 37° C., the absorbance at wavelengths of 450 nm and 630 nm (OD450 and OD630) was recorded by a plate reader.

HBV [2] = test: Anti-HBV activity in vitro in HepG2.2.15 cells (extracellular HBV DNA by qPCR); format: cell-based, Hepatitis B virus; settings: Hepatitis B virus
Text: as §1
While HepG2.2.15 cells constitutively support HBV replication and production of virus particles, HepDE19 cells are inducible by tetracycline. Addition of 1 μg/mL tetracycline in culture medium suppresses HBV replication in HepDE19 cells, whereas switching to tetracycline-free medium resumes this process.
HepG2.2.15 cells were seeded into 96-well plates (3×10^4 cells in 100 μl media per well) and incubated overnight at 37° C. The test compounds were serially half-log diluted in DMSO, then diluted 100 times in culture media. 100 μL diluted compounds were added into the plates to reach 0.5% final concentration of DMSO in every well. Five days after compound treatment, culture supernatant was collected for further analysis.
For quantitative PCR detection of extracellular HBV DNA, 100 μL culture supernatant was collected and processed in MagNA Pure 96 Nucleic Acid Purification System (Roche Applied Science) for viral DNA extraction. The extracted samples were subjected to HBV DNA quantification by qPCR.
The compounds of the present invention were tested for their capacity to inhibit a HBV activity and activation as described herein.

HBV [3] = test: Selectivity index (CC50 value/EC50 value); format: cell-based, Hepatitis B virus
Text: Based on FDA guidance, in order to support clinical testing in humans, the assessment of acceptable risk-benefit has to be achieved by providing clear evidence of in vitro antiviral activity (EC50) and cytotoxicity (CC50). It is important to establish that an investigational product has antiviral activity at concentrations that can be achieved in vivo without inducing toxic effects to cells. Furthermore, in a cell culture model, apparent antiviral activity of an investigational product can be the result of host cell death after exposure to the product. The relative effectiveness of the compound in inhibiting viral replication compared to inducing cell death is defined as the selectivity index (CC50 value/EC50 value). It is desirable to have a high selectivity index giving maximum antiviral activity with minimal cell toxicity.
The relative effectiveness of the compound in inhibiting viral replication compared to inducing cell death is defined as the selectivity index (CC50 value/EC50 value). It is desirable to have a high selectivity index giving maximum antiviral activity with minimal cell toxicity.

[4] = Metabolic stability study in human microsome; format: in vitro ADME
Protocol: Human Microsomes were preincubated with test compound for 10 min at 37° C. in 100 mM phosphate buffer, pH 7.4. The reactions were initiated by adding NADPH or NADPH regenerating system to give a final incubation volume of 400 μL. For NADPH system, the final incubations contained 1 μM test compound, 0.5 mg/mL liver microsomal protein, 1 mM NADPH in 100 mM phosphate buffer, pH 7.4. For the NADPH regenerating system, the final incubations contained 1 μM test compound, 0.5 mg/mL liver microsomal protein, 3 mM glucose 6-phosphate, 1 mM NADP, 3 mM MgCl2 and 0.05 mg/mL glucose 6-phosphate dehydrogenase in 100 mM phosphate buffer, pH 7.4. After incubation times of 0, 3, 6, 9, 15 and 30 minutes at 37° C., 50 μL samples was removed and transferred to 150 μL methanol solution which was maintained at 4° C. containing 2 μM tolbutamide (internal standard) to terminating the reaction. Following precipitation and centrifugation, the amount of compound remaining in the samples were determined by LC-MS/MS. Controls of no NADPH or NADPH regenerating system at zero and 30 min were also prepared and analyzed.

[5] = Lyophilisation solubility assay (Lysa); format: physicochemical; settings: phosphate buffer, pH 6.5, aqueous buffer, thermodynamic from solid
Protocol: The aqueous solubility is an important physico-chemical property that plays a significant role in various physical and biological processes. It is desirable to have good solubility which enables good permeability and gastric and intestinal absorption, linear dose proportionality, less PK variability, and easy formulation for PD/PK studies. […] Lyophilisation solubility assay (Lysa) is a well adopted high throughput assay to measure compound solubility in industry.
Samples are prepared in duplicate from 10 mM DMSO stock solutions. After evaporation of DMSO with a centrifugal vacuum evaporator, the residue is solved in 0.05 M phosphate buffer (pH 6.5), stirred for one hour and shaken for two hours. After one night, the solutions is filtered using a microtiter filter plate and the filtrate and its 1/10 dilution are then analyzed by direct UV measurement or by HPLC-UV. […] The results are in μg/mL.

[6] = HepG2.2.15 cells, in-house data, read-out: EC50

With `CCOC(=O)C1=C(CN2CCO[C@H](C)[C@H]2C(=O)O)NC(c2nccs2)=N[C@H]1c1ccc(F)c(F)c1` [Example 112, (2R,3S)-4-[(S)-6-(3,4-Difluoro-phenyl)-5-ethoxycarbonyl-2-thiazol-2-yl-3,6-dihydro-pyrimidin-4-ylmethyl]-2-methyl-morpholine-3-carboxylic acid] the CC50 at 5 days [1] was 73000 nM, the EC50 (HBV [2]; [6]) was 5.2 nM and the “Selectivity index (CC50/EC50)” value (HBV [3]) was 14123. The “Human Hepatic Clearance” value [4] was 1.95 mL/min/kg.
In the case of `CCOC(=O)C1=C(CN2CCOC[C@H]2C(=O)O)NC(c2nccs2)=N[C@H]1c1ccc(Cl)cc1Cl` [Example 39, (S)-4-[(R)-6-(2,4-Dichloro-phenyl)-5-ethoxycarbonyl-2-thiazol-2-yl-3,6-dihydro-pyrimidin-4-ylmethyl]-morpholine-3-carboxylic acid], the EC50 (HBV [2]; HepG2.2.15) is reported as 1.1 nM, the solubility thermodynamic [5] is reported as greater than 654 µg/mL and the “Human Hepatic Clearance” value [4] is reported as 7.18 mL/min/kg.
With `COC(=O)C1=C(CN2CCOC[C@@]2(C)C(=O)O)NC(c2nccs2)=N[C@H]1c1ccc(F)c(F)c1Cl` [Example 78, (S)-4-[(R)-6-(2-Chloro-3,4-difluoro-phenyl)-5-methoxycarbonyl-2-thiazol-2-yl-3,6-dihydro-pyrimidin-4-ylmethyl]-3-methyl-morpholine-3-carboxylic acid] the EC50 (HBV [2]; [6]) was 26 nM, the solubility thermodynamic [5] was greater than 653 µg/mL and the “Human Hepatic Clearance” value [4] was 3.22 mL/min/kg.
For `CCOC(=O)C1=C(CN2CC(F)(F)C[C@H]2C(=O)O)NC(c2nccs2)=N[C@H]1c1ccc(C#N)cc1` [Example 48, (S)-6-((S)-2-Carboxy-4,4-difluoro-pyrrolidin-1-ylmethyl)-4-(4-cyano-phenyl)-2-thiazol-2-yl-1,4-dihydro-pyrimidine-5-carboxylic acid ethyl ester], the EC50 (HBV [2]; [6]) was 28 nM, the solubility thermodynamic [5] was greater than 635 µg/mL and the “Human Hepatic Clearance” value [4] was 3.12 mL/min/kg.
With `CC(C)OC(=O)C1=C(CN2CCOC[C@H]2C(=O)O)NC(c2nccs2)=N[C@H]1c1ccc(F)c(F)c1` [Example 100, (S)-4-[(S)-6-(3,4-Difluoro-phenyl)-5-isopropoxycarbonyl-2-thiazol-2-yl-3,6-dihydro-pyrimidin-4-ylmethyl]-morpholine-3-carboxylic acid] the EC50 (HBV [2]; [6]) was 35 nM, the solubility thermodynamic [5] was greater than 656 µg/mL and the “Human Hepatic Clearance” value [4] was 0.1 mL/min/kg.
With `COC(=O)C1=C(CN2CC(F)(F)CC[C@@H]2C(=O)O)NC(c2nccs2)=N[C@H]1c1cccc(F)c1Cl` [Example 110, (R)-6-((R)-2-Carboxy-5,5-difluoro-piperidin-1-ylmethyl)-4-(2-chloro-3-fluoro-phenyl)-2-thiazol-2-yl-1,4-dihydro-pyrimidine-5-carboxylic acid methyl ester] the EC50 (HBV [2]; [6]) was 42 nM, the solubility thermodynamic [5] was greater than 661 µg/mL and the “Human Hepatic Clearance” value [4] was 2.41 mL/min/kg.
With `CCCOC(=O)C1=C(CN2CCOC[C@H]2C(=O)O)NC(c2nccs2)=N[C@H]1c1ccc(F)cc1Cl` [Example 99, (S)-4-[6-(2-Chloro-4-fluoro-phenyl)-5-propoxycarbonyl-2-thiazol-2-yl-3,6-dihydro-pyrimidin-4-ylmethyl]-morpholine-3-carboxylic acid] the EC50 (HBV [2]; [6]) was 12 nM, the solubility thermodynamic [5] was greater than 677 µg/mL and the “Human Hepatic Clearance” value [4] was 2.13 mL/min/kg.
With `CCOC(=O)C1=C(CN2CCOC[C@H]2C(=O)O)NC(c2nccs2)=N[C@H]1c1ccc(Cl)c(Br)c1` [Example 124, (3S)-4-[[(4S)-4-(3-Bromo-4-chlorophenyl)-5-ethoxycarbonyl-2-(1,3-thiazol-2-yl)-1,4-dihydropyrimidin-6-yl]methyl]morpholine-3-carboxylic acid] the EC50 (HBV [2]; [6]) was 29 nM, the solubility thermodynamic [5] was greater than 655 µg/mL and the “Human Hepatic Clearance” value [4] was 2.17 mL/min/kg.
For `COC(=O)C1=C(CN2CCSCC2C(=O)O)NC(c2nccs2)=N[C@H]1c1ccc(F)cc1Cl` (stereo in doubt) [Example 91, (3S)-4-[[(4R)-4-(2-Chloro-4-fluoro-phenyl)-5-methoxycarbonyl-2-thiazol-2-yl-1,4-dihydropyrimidin-6-yl]methyl]thiomorpholine-3-carboxylic acid], the EC50 (HBV [2]; [6]) was 38 nM, the solubility thermodynamic [5] was 584 µg/mL (≈ 1140 µM) and the “Human Hepatic Clearance” value [4] was 1.62 mL/min/kg.
For `COC(=O)C1=C(CN2CC(F)(F)C[C@H]2C(=O)O)NC(c2nccs2)=N[C@H]1c1ccc(Br)cc1Cl` [Example 29, (R)-4-(4-Bromo-2-chloro-phenyl)-6-((S)-2-carboxy-4,4-difluoro-pyrrolidin-1-ylmethyl)-2-thiazol-2-yl-1,4-dihydro-pyrimidine-5-carboxylic acid methyl ester], the EC50 (HBV [2]; [6]) was 28 nM, the solubility thermodynamic [5] was 420 µg/mL (≈ 729 µM) and the “Human Hepatic Clearance” value [4] was 7.65 mL/min/kg.
In the case of `COC(=O)C1=C(CN2CCOC[C@H]2C(=O)O)NC(c2nccs2)=N[C@H]1c1ccc(Br)c(F)c1F` [Example 45, (5)-4-[(R)-6-(4-Bromo-2,3-difluoro-phenyl)-5-methoxycarbonyl-2-thiazol-2-yl-3,6-dihydro-pyrimidin-4-ylmethyl]-morpholine-3-carboxylic acid], the EC50 (HBV [2]; [6]) is reported as 28 nM, the solubility thermodynamic [5] is reported as greater than 695 µg/mL and the “Human Hepatic Clearance” value [4] is reported as 4.69 mL/min/kg.
With `COC(=O)C1=C(CN2CC(F)(F)C[C@H]2C(=O)O)NC(c2ncc(F)cc2F)=N[C@H]1c1ccc(F)cc1Cl` [Example 4, (R)-6-((S)-2-Carboxy-4,4-difluoro-pyrrolidin-1-ylmethyl)-4-(2-chloro-4-fluoro-phenyl)-2-(3,5-difluoro-pyridin-2-yl)-1,4-dihydro-pyrimidine-5-carboxylic acid methyl ester] the EC50 (HBV [2]; [6]) was 1.5 nM, the solubility thermodynamic [5] was greater than 700 µg/mL and the “Human Hepatic Clearance” value [4] was 5.11 mL/min/kg.
For `CCOC(=O)C1=C(CN2CC(F)(F)C[C@H]2C(=O)O)NC(c2nccn2C)=N[C@H]1c1ccc(F)c(F)c1` [Example 56, (S)-6-((S)-2-Carboxy-4,4-difluoro-pyrrolidin-1-ylmethyl)-4-(3,4-difluoro-phenyl)-2-(1-methyl-1H-imidazol-2-yl)-1,4-dihydro-pyrimidine-5-carboxylic acid ethyl ester], the EC50 (HBV [2]; [6]) was 15 nM, the solubility thermodynamic [5] was greater than 645 µg/mL and the “Human Hepatic Clearance” value [4] was 2.44 mL/min/kg.
For `COC(=O)C1=C(CN2C[C@H](C(=O)O)CC(F)(F)C2)NC(c2nc(C)cs2)=N[C@H]1c1ccc(F)cc1Cl` [Example 80, (R)-6-((R)-5-Carboxy-3,3-difluoro-piperidin-1-ylmethyl)-4-(2-chloro-4-fluoro-phenyl)-2-(4-methyl-thiazol-2-yl)-1,4-dihydro-pyrimidine-5-carboxylic acid methyl ester], the EC50 (HBV [2]; [6]) was 27 nM, the solubility thermodynamic [5] was 518 µg/mL (≈ 954 µM) and the “Human Hepatic Clearance” value [4] was 4.27 mL/min/kg.
